Data from article PMC11288129, “Diversely evolved xibalbin variants from remipede venom inhibit potassium channels and activate PKA-II and Erk1/2 signaling” (BMC Biology, 2024).
“Also recorded” adds a separate entry of the source. Marks after values point to notes of the source that are not given here. Positions of bridges follow the written chain, without caps; N, C: chain ends. No end group written: not given here.

Columns and labels:
[1] = system: hNav1.5; experiment: TEVC current-voltage relationship (Vhalf), Nav1.5; format: cell-based, human; design: Vhalf, toxin inactivation, Nav1.5 / Vhalf, toxin activation, Nav1.5: unit not given here; settings: for Vhalf, toxin activation, Nav1.5 / Vhalf, toxin inactivation, Nav1.5: 1 µM
From the text: For the expression of Kv channels rat Kv1.1 (GenBank accession number: NM_173095 [88, 89]), rKv1.2 (NM_012970 [90, 91]), human Kv1.3 (NM_002232 [92, 93]), rKv1.4 (NM_012971 [94, 95]), rKv1.6 (NM_023954 [96, 97]), hKv2.1 (NM_004975 [98, 99]), hKv3.1 (NM_004976 [100, 101]), rKv4.2 (NM_031739 [102, 103]), hKv10.1 (NM_172362 [104, 105]), hERG1 [Kv11.1, (NM_000238 [106, 107])], and Shaker IR [from Drosophila melanogaster, (NM_167595 [108, 109])], Nav channels [rNav1.2 (NM_012647 [42, 110]), rNav1.4 (NM_013178 [111, 112]), hNav1.5 (NM_198056 [113, 114]), mNav1.6 (NM_001077499 [115, 116]), BgNav [from Blattella germanica, (DQ466887 [117, 118])] and the auxiliary subunits rβ1 (NM_001271045 [119, 120]), hβ1 (NM_001037 [121, 122]), and TipE [from D. melanogaster, (NM_079196 [109, 123])], and Cav channels hCav3.1 [124, 125], hCav3.2 [126, 127], and hCav3.3 [128, 129] in Xenopus oocytes, the linearized plasmids were transcribed using the T7 or SP6 mMESSAGEmMACHINE transcription kit (Ambion, Austin, TX, USA). Mature female animals were purchased from Nasco (Fort Atkinson, USA) and were housed in the Aquatic Facility (KU Leuven) in compliance with the regulations of the European Union (EU) concerning the welfare of laboratory animals as declared in Directive 2010/63/EU. The use of X. laevis oocytes was approved by the Animal Ethics Committee of the KU Leuven with the license number P186/2019. Stage V–VI oocytes were collected from anesthetized female X. laevis frog as previously described, with the frogs anesthetized by placement in 0.1% tricaine solution (amino benzoic acid ethyl ester; Merck, USA). Oocyte microinjection was performed using a microinjector (Drummond Scientifc®, USA), with a programmed cRNA injection volume of 4—50 nL, depending on the channel subtype. The oocytes were incubated in ND96 solution (96 mM NaCl, 2 mM KCl, 1.8 mM CaCl2, 2 mM MgCl2, and 5 mM HEPES, pH 7.4), supplemented with 50 mg/l gentamicin sulfate.
Electrophysiological measurements were performed at room temperature (18–22 °C) using the two-electrode voltage clamp (TEVC) technique. Data were obtained using a GeneClamp 500 amplifier (Axon Instruments, USA), and Clampex9 software (Axon Instruments), responsible for data acquisition and storage. Glass micropipettes were produced using glass capillaries (borosilicate WPI 1B120-6) and drawn in a WPI (World Precision Instruments, USA) manual stretcher. The bath and perfusion solutions were either the previously described ND96 (Nav and Kv channels) or calcium-free ND96 supplemented with 10 mM BaCl2 (Cav channels).
Whole-cell currents of oocytes were recorded 1 to 3 days after injection. Current and voltage electrodes were filled with 3 M KCl and their resistance was adjusted from 0.7 to 2.0 MΩ. Currents were sampled at 20 kHz (Nav channels) and 10 kHz (Kv and Cav channels) and filtered using a four-pole Bessel low-pass Bessel filter, at 1 kHz for sodium, and […] for potassium and calcium, except for the hERG ion channel, in which the currents were filtered at 1 kHz. Leak subtraction was performed using a -P/4 protocol. Kv1.x currents were evoked by 500 ms depolarizations to 0 mV followed by a 500-ms pulse to − 50 mV, from a holding potential of − 90 mV. Kv2.1, Kv3.1, and Kv4.2 currents were elicited by 500 ms pulses to + 20 mV from a holding potential of − 90 mV. Current traces of Kv10.1 were elicited by 2 s depolarization to 0 mV, from a holding potential of − 90 mV. Current traces of hERG1 channel were elicited by applying a + 40 mV prepulse for 2 s followed by a step of − 120 mV for 2 s. Sodium current traces were evoked by a 100 ms depolarization to 0 mV, from a holding potential of − 90 mV. The current–voltage (IV) relationships were determined by 100-ms step depolarizations between − 90 and + 40 mV, using 5 mV increments. […]

[2] = system: voltage-gated sodium channels (Nav); experiment: TEVC on panel of voltage-gated sodium channels; format: cell-based; settings: 1 µM
From the text: For the expression of Kv channels rat Kv1.1 (GenBank accession number: NM_173095 [88, 89]), rKv1.2 (NM_012970 [90, 91]), human Kv1.3 (NM_002232 [92, 93]), rKv1.4 (NM_012971 [94, 95]), rKv1.6 (NM_023954 [96, 97]), hKv2.1 (NM_004975 [98, 99]), hKv3.1 (NM_004976 [100, 101]), rKv4.2 (NM_031739 [102, 103]), hKv10.1 (NM_172362 [104, 105]), hERG1 [Kv11.1, (NM_000238 [106, 107])], and Shaker IR [from Drosophila melanogaster, (NM_167595 [108, 109])], Nav channels [rNav1.2 (NM_012647 [42, 110]), rNav1.4 (NM_013178 [111, 112]), hNav1.5 (NM_198056 [113, 114]), mNav1.6 (NM_001077499 [115, 116]), BgNav [from Blattella germanica, (DQ466887 [117, 118])] and the auxiliary subunits rβ1 (NM_001271045 [119, 120]), hβ1 (NM_001037 [121, 122]), and TipE [from D. melanogaster, (NM_079196 [109, 123])], and Cav channels hCav3.1 [124, 125], hCav3.2 [126, 127], and hCav3.3 [128, 129] in Xenopus oocytes, the linearized plasmids were transcribed using the T7 or SP6 mMESSAGEmMACHINE transcription kit (Ambion, Austin, TX, USA). […]
Whole-cell currents of oocytes were recorded 1 to 3 days after injection. […] The current–voltage (IV) relationships were determined by 100-ms step depolarizations between − 90 and + 40 mV, using 5 mV increments. […]

With “RLFCIRHHKYCGHRPKRCCSGLFCRCNTFGTNCRCQSKGALGKLI (disulfide 4-19, 11-24, 18-35, 26-33) [xib1]” as the sequence, how does the “Vhalf inactivation shift, Nav1.5” value ([1]; 1 µM versus control (ND96)) read?
Its value is 1.5 mV.

And the “Vhalf, toxin activation, Nav1.5” value ([1]; replicate 1)?
Its value is -27.2261.

What about the “Vhalf, toxin inactivation, Nav1.5” value ([1]; replicate 1) of the same sequence?
Its value is -60.2865.

What about the “Vhalf, toxin activation, Nav1.5” value ([1]; replicate 2) of the same sequence?
The value was -20.8548.

What about the “Vhalf, toxin inactivation, Nav1.5” value ([1]; replicate 2) of the same sequence?
Its value is -53.6522.

And the “Vhalf, toxin activation, Nav1.5” value ([1]; replicate 3)?
The value was -24.2578.

And the “Vhalf, toxin inactivation, Nav1.5” value ([1]; replicate 3)?
The value was -54.899.

What about the “Vhalf, toxin activation, Nav1.5” value ([1]; replicate 4) of the same sequence?
The value was -22.0356.

And the “Vhalf, toxin inactivation, Nav1.5” value ([1]; replicate 4)?
The value was -51.823.

What about the “inhibition of voltage-gated sodium channels” value [2] of the same sequence?
Its value is “inhibit voltage-gated sodium channels; also recorded: mild inhibition”.

For “KRSCIRRFGRCDHRPNDCCYNSSCRCNLWGSNCRCQRMGLFQKWGK (disulfide 4-19, 11-24, 18-35, 26-33) [xib13]”, which “Vhalf activation shift, Nav1.5” value ([1]; 1 µM versus control (ND96)) is on record?
Its value is 5.9*** mV.

And the “Vhalf, toxin activation, Nav1.5” value ([1]; replicate 1)?
Its value is -22.7699.

What about the “Vhalf, toxin inactivation, Nav1.5” value ([1]; replicate 1) of the same sequence?
Its value is -59.4076.

And the “Vhalf, toxin activation, Nav1.5” value ([1]; replicate 2)?
The value was -23.9735.

And the “Vhalf, toxin inactivation, Nav1.5” value ([1]; replicate 2)?
The value was -59.2524.

And the “Vhalf, toxin activation, Nav1.5” value ([1]; replicate 3)?
The value was -25.0967.

And the “Vhalf, toxin inactivation, Nav1.5” value ([1]; replicate 3)?
The value was -59.4209.

What about the “inhibition of voltage-gated sodium channels” value [2] of the same sequence?
Its value is “inhibit voltage-gated sodium channels; also recorded: mild inhibition; also recorded: most significant inhibition rates”.
